Consider eleven molecules from patent publication US20250243215A1, “INHIBITORS OF EPIDERMAL GROWTH FACTOR RECEPTOR” (National Health Research Institutes, priority 2024, published 2025).

In test [1] the test system is A431 (wild-type EGFR overexpressing) cells. Briefly: Cell proliferation assay (MTS), A431. The class given is cell-based. The conditions noted are these: Homo sapiens, A-431, 96 h exposure.
Procedure: (§1) A431 (wild-type EGFR overexpressing) and H1975 (double-mutant overexpressing) cells were exposed to test compounds for 96 h and the cell proliferation was determined by the MTS method.
In test [2] the test system is H1975 (double-mutant overexpressing) cells. Briefly: Cell proliferation assay (MTS), H1975. The class given is cell-based. The conditions noted are these: Homo sapiens, NCI-H1975, 96 h exposure.
Procedure: as §1

By IC50 is commonly meant the concentration that inhibits the measured activity by half. A high value points to a need for much substance. For the molecule `C=CC(=O)Nc1cc(-c2c(-c3ccccc3)oc3ncnc(NC4CCCC4)c23)ccc1N1CC[C@@H](N(C)C)C1` [Compound 28, N-{5-[4-(Cyclopentylamino)-6-phenylfuro[2,3-d]pyrimidin-5-yl]-2-[(3R)-3-(dimethylamino)pyrrolidin-1-yl]phenyl}prop-2-enamide], the IC50 in test [1] is greater than 5000 nM; in test [2], 200 to 5000 nM.

Consider `C=CC(=O)Nc1cc(-c2c(-c3ccccc3)oc3ncnc(NCCc4ccc(O)cc4)c23)ccc1N1CCN(C)CC1` [Compound 36, N-[5-(4-{[2-(4-Hydroxyphenyl)ethyl]amino}-6-phenylfuro[2,3-d]pyrimidin-5-yl)-2-(4-methylpiperazin-1-yl)phenyl]prop-2-enamide], for which the 50% inhibitory concentration (IC50) in test [1] and in test [2] was 200 to 5000 nM each time.

In the case of `C=CC(=O)Nc1cc(-c2c(-c3ccccc3)oc3ncnc(NCCc4ccc(O)cc4)c23)ccc1N(C)CCN(C)C` [Compound 37, N-[2-{[2-(Dimethylamino)ethyl](methyl)amino}-5-(4-{[2-(4-hydroxyphenyl)ethyl]amino}-6-phenylfuro[2,3-d]pyrimidin-5-yl)phenyl]prop-2-enamide], the half-inhibitory concentration (IC50) in test [1] and in test [2] was 200 to 5000 nM throughout.

Regarding `C=CC(=O)Nc1cc(-c2c(-c3ccccc3)oc3ncnc(NCCc4ccc(O)cc4)c23)ccc1N(C)CCN1CCN(C)CC1` [Compound 40, N-[5-(4-{[2-(4-Hydroxyphenyl)ethyl]amino}-6-phenylfuro[2,3-d]pyrimidin-5-yl)-2-{methyl [2-(4-methylpiperazin-1-yl)ethyl]amino}phenyl]prop-2-enamide], the IC50 was greater than 5000 nM in test [1] and 200 to 5000 nM in test [2].

Turning to `C=CC(=O)Nc1cc(-c2c(-c3ccccc3)oc3ncnc(NCCc4ccc(S(N)(=O)=O)cc4)c23)ccc1N(C)CCN(C)C` [Compound 41, N-(5-[4-({2-[4-(Aminosulfonyl)phenyl]ethyl}amino)-6-phenylfuro-[2,3-d]pyrimidin-5-yl]-2-{[2-(dimethylamino)ethyl](methyl)amino}phenyl)prop-2-enamide], the 50% inhibitory concentration (IC50) is 200 to 5000 nM in test [1] and less than 200 nM in test [2].

As to `C=CC(=O)Nc1cc(-c2c(-c3ccc(F)cc3)oc3ncnc(NC4CCCC4)c23)ccc1N(C)CCN(C)C` [Compound 42, N-(5-[4-(Cyclopentylamino)-6-(4-fluorophenyl)furo[2,3-d]pyrimi-din-5-yl]-2-{[2-(dimethylamino)ethyl](methyl)amino}phenyl)prop-2-enamide], the values for the concentration for half-maximal inhibition (IC50) in test [1] and in test [2] were 200 to 5000 nM and less than 200 nM, respectively.

Turning to `C=CC(=O)Nc1cc(-c2c(-c3ccccc3)oc3ncnc(Nc4ccccc4)c23)ccc1N(C)CCN(C)C` [Compound 43, N-(2-{[2-(Dimethylamino)ethyl](methyl)amino}-5-[6-phenyl-4-(phenylamino)furo[2,3-d]pyrimidin-5-yl]phenyl)prop-2-enamide], the figures for the half-inhibitory concentration (IC50) in test [1] and in test [2] were 200 to 5000 nM and less than 200 nM, respectively.

Turning to `C=CC(=O)Nc1cc(-c2c(-c3ccccc3)oc3ncnc(N[C@H]4CC[C@@H](O)CC4)c23)ccc1N(C)CCN(C)C` [Compound 52, N-(2-{[2-(Dimethylamino)ethyl](methyl)amino}-5-{4-[(4-hydroxy-cyclohexyl)amino]-6-phenylfuro[2,3-d]pyrimidin-5-yl}phenyl)prop-2-enamide], the IC50 in test [1] is 200 to 5000 nM; in test [2] it was less than 200 nM.

Consider `C=CC(=O)Nc1cc(-c2c(-c3ccccc3)oc3ncnc(N[C@@H]4CCCC[C@@H]4O)c23)ccc1N(C)CCN(C)C` [Compound 53, N-[2-{[2-(Dimethylamino)ethyl](methyl)amino}-5-(4-{[(1R,2S)-2-hydroxycyclohexyl]amino}-6-phenylfuro[2,3-d]pyrimidin-5-yl)phenyl]prop-2-enamide], for which the IC50 was 200 to 5000 nM in test [1] and less than 200 nM in test [2].

`C=CC(=O)Nc1cc(-c2c(-c3ccccc3)oc3ncnc(N[C@H]4CC[C@H](O)CC4)c23)ccc1N(C)CCN(C)C` [Compound 55, N-(2-{[2-(Dimethylamino)ethyl](methyl)amino}-5-{4-[(4-hydroxy-cyclohexyl)amino]-6-phenylfuro[2,3-d]pyrimidin-5-yl}phenyl)prop-2-enamide]: the IC50 was 200 to 5000 nM in test [1] and less than 200 nM in test [2].

With `C=CC(=O)Nc1cccc(-c2c(-c3ccccc3)oc3ncnc(N4CCC4)c23)c1` [Compound 61, N-{3-[4-(Azetidin-1-yl)-6-phenylfuro[2,3-d]pyrimidin-5-yl]phenyl}prop-2-enamide], the half-inhibitory concentration (IC50) in test [1] is 200 to 5000 nM; in test [2] it was less than 200 nM.
